From US20070265194A1, “Agents for the treatment of viral infections” (priority 2000, published 2007)
Peptide text beside a SMILES is read from it. * marks the point of attachment. Cbz = O=C(OCc1ccccc1)*

Columns and labels:
[1] = system: mouse thymus cell lines; conditions: cited from earlier work
[2] = target: HIV-1 protease (Human immunodeficiency virus type 1 group M subtype B, UniProt P04585); experiment: In vitro Gag processing of recombinant Pr55 by recombinant HIV-1 protease, Western blot; format: biochemical; conditions: for inhibition of protease activity: 10-fold higher concentration than in the cell culture, 30 min reaction, FIG. 3 reactions 4-9; for inhibitory action on Gag processing by HIV-1 protease: inhibitor concentration of up to 100 microM, enzyme-to-substrate ratio 1:25
Text: Therefore, a possible influence of proteasome inhibitors on the enzymic activity of the HIV-1 protease is investigated within the framework of the invention by studying the in vitro processing of Gag polyprotein (for this, see exemplary embodiment 4). For this purpose, according to the invention, recombinant Pr55 is expressed in insect cells and purified from released virus-like particles. Enzymatically active HIV-1 protease is expressed in E. coli and chromatographically purified. The specific activity of the protease is determined by means of titration of the active sites. Pr55 and protease are set to an enzyme-to-substrate ratio of 1:25 and incubated for a defined time under conditions under which only approx. 50% of the substrate Pr55 is proteolytically processed. These reaction conditions allow sensitive detection of small effects on the enzymic activity of the protease.
Recombinant HIV-1 Gag polyprotein Pr55 was prepared in insect cells and recombinant HIV-1 protease was prepared in E. coli. The experimental details of expression, purification and determination of the enzymic activity as well as carrying out the in vitro cleavage reactions and Western blots are illustrated in more detail in Example 6f. The enzyme-to-substrate ratios (protease-Pr55 ratio) were chosen in such a way that substrate conversion was relatively slow. After 30 min of reaction, approx. 50% of Pr55 had been cleaved. Under these conditions it is possible to determine even weakly inhibitory effects on the enzymic activity of the protease.
Myristylated Pr55 of HIV-1 was produced from virus-like particles which were released from insect cells infected with recombinant baculovirus Gag12myr. The virus-like particles were purified by centrifugation through a 20% sucrose layer. Recombinant HIV-1 protease expressed in E. coli was purified by means of gel filtration chromatography on Superose 12. The enzyme concentration was determined by means of active-site titration. For cleavage reactions, usually 1 μM Pr55 was incubated with 40 nM (nanomol) PR in reaction buffer (50 mM MES pH 6.5, 300 mM NaCl, 2 mM DTT, 1 mM EDTA, 0.1% Triton-X 100) at 37° C. for 30 min. In order to ensure maximum saturation of PR with inhibitors, PR was preincubated with the particular inhibitor for 5 min, prior to the start of the cleavage reactions. The cleavage reactions were stopped by adding SDS sample buffer and boiling the sample for 10 min. The cleavage products were fractionated in 10% SDS-PAGE and then detected by means of Western blot. For this purpose, anti-CA-specific antibodies were used which were detected by means of anti-rabbit IgG-peroxidase conjugate and chemiluminescence reaction.
Recombinant Pr55 was isolated from virus-like particles which had been produced by insect cells infected with recombinant bacculovirus. Recombinant HIV-1 protease was expressed in E. coli, purified, and the specific activity was determined by active-site titration. The quantities of Pr55 and protease were mixed with an enzyme-to-substrate ratio of 1:25 and incubated at 37° C. for 30 min. The reaction was stopped by adding SDS sample buffer. The cleavage reactions were then studied by Western blot analysis with CA-specific antiserum. Pr55, CA and intermediate processing product MA-Ca were made visible, after antibody binding, by means of a chemiluminescence reaction. […]

[3] = system: HepG2
[4] = system: DHBV; experiment: Primary and secondary DHBV infection in primary duck hepatocytes, core immunofluorescence; format: cell-based, duck hepatitis B virus
[5] = target: 20S proteasome (Homo sapiens, UniProt P28074); conditions: in vitro; cited from earlier work
[6] = system: HIV-1NL4-3; experiment: Virus release from HIV-1-infected A3.01 T cells, p24 CA capture ELISA; format: cell-based
Procedure: Cultures of human CD4^+ T cells, A3.01 were infected with HIV-1NL4-3 and cultured in RPMI for approx. 7 days. Approx. 80% of the cell culture medium was replaced every other day. The amount of released virus particles was determined by testing samples of the cell culture supernatants for activity of virus-associated RT. Furthermore, the spread of the infection was monitored by indirect immunofluorescence with anti-CA antibodies. The time of maximum spread of the infection in the culture was determined on the basis of RT accumulation and of syncytia formation. At the time of maximum virus production (approx. 7 days after infection), fresh noninfected A3.01 cells were mixed with the infected culture in a 1:1 ratio and incubated for another 24 h. This makes it possible to quasi-synchronize the infection and to maximize the number of infected cells with maximum HIV expression at a given time. The cells were divided into parallel cultures, washed with PBS and treated with 40 microM zLLL in medium for 4.5 hours. […] The virus-containing cell culture supernatants were collected, filtered, and the amount of Gag proteins was quantified by means of a standardized capture ELISA using anti-CA antibodies with different epitopes. […] The infectivity of the culture supernatants was determined by means of end point titration (detailed in example 6d) and is indicated as TCID50 in Table 1. The specific infectivity was determined by dividing TCID50 by the total amount of Gag and is listed in Table 1 as percentage infectivity of the control culture (no zLLL=100%). […]
CD4^+ T cells (A3.01) were infected with HIV-1NL4-3, at the time of maximum virus production (approx. 7 days post infection), parallel cultures were treated either without or with 40 μM zLLL for 1 (+zLLL “−1 hr”) or 6 hours (+zLLL “−6 hr”). […] The virus-containing supernatants were collected, and the amount of CA antigen was quantified by means of ELISA. The specific infectivity was determined as the infectious virus titer per nanog of CA and depicted relative to the untreated control culture (100%). […]

[7] = system: HIV-1NL4-3; experiment: HIV-1 replication in A3.01 cell culture, RT activity in supernatant; format: cell-based; conditions: for productive infection in the culture (RT accumulation): 5 microM, approx. 2 weeks
[8] = system: HIV-1NL4-3; format: cell-based
[9] = system: HIV-1NL4-3; experiment: Infectivity of released virions, end point titration (TCID50) on C8166 cells; format: cell-based; conditions: for Infectivity Titer/ng p24^CA / Virus titer/ml TCID50 / Infectivity % of “no zLLL”: 40 μM zLLL; for Infectivity % of “no zLLL”: control = 100; for reduction of infectious virions in the cell culture medium: 40 microM zLLL
Procedure: Cultures of human CD4^+ T cells, A3.01 were infected with HIV-1NL4-3 and cultured in RPMI for approx. 7 days. Approx. 80% of the cell culture medium was replaced every other day. The amount of released virus particles was determined by testing samples of the cell culture supernatants for activity of virus-associated RT. Furthermore, the spread of the infection was monitored by indirect immunofluorescence with anti-CA antibodies. The time of maximum spread of the infection in the culture was determined on the basis of RT accumulation and of syncytia formation. At the time of maximum virus production (approx. 7 days after infection), fresh noninfected A3.01 cells were mixed with the infected culture in a 1:1 ratio and incubated for another 24 h. This makes it possible to quasi-synchronize the infection and to maximize the number of infected cells with maximum HIV expression at a given time. The cells were divided into parallel cultures, washed with PBS and treated with 40 microM zLLL in medium for 4.5 hours. Washing of the cells and culturing in fresh medium was necessary in order to monitor the newly produced viruses during the harvest period of 4.5 hours (+zLLL “0 hr”). It was assumed that there is a certain lag phase of approx. 1 hour, corresponding to HIV-1 assembly, between the start of the treatment with proteasome inhibitors and the release of defective virions. In order to monitor the virus production of cells with inactivated proteasomes at the start of the harvest period, parallel cultures were pretreated with 40 microm zLLL prior to the washing step for one (+zLLL “−1 hr”) or 6 hours (+zLLL “−6 hr”). A parallel culture was incubated without inhibitor (no zLLL). The virus-containing cell culture supernatants were collected, filtered, and the amount of Gag proteins was quantified by means of a standardized capture ELISA using anti-CA antibodies with different epitopes. […] The infectivity of the culture supernatants was determined by means of end point titration (detailed in example 6d) and is indicated as TCID50 in Table 1. The specific infectivity was determined by dividing TCID50 by the total amount of Gag and is listed in Table 1 as percentage infectivity of the control culture (no zLLL=100%). Both the release of Gag proteins and the infectivity of the released virions are shown to be inhibited after zLLL treatment. This effect increases with time, and infectious virions in the cell culture medium are reduced by 84% after 4.5 hours and by 98% after another 6 hours of pretreatment (Table 1).
CD4^+ T cells (A3.01) were infected with HIV-1NL4-3, at the time of maximum virus production (approx. 7 days post infection), parallel cultures were treated either without or with 40 μM zLLL for 1 (+zLLL “−1 hr”) or 6 hours (+zLLL “−6 hr”). This was followed by washing the cells and another 4.5 hours of incubating with or without 40 μM zLLL. In a parallel culture, cells were treated with 40 μM zLLL immediately after washing (+zLLL “0 hr”). The virus-containing supernatants were collected, and the amount of CA antigen was quantified by means of ELISA. The specific infectivity was determined as the infectious virus titer per nanog of CA and depicted relative to the untreated control culture (100%).
Acute HIV-1NL4-3-infected A3.01 cells were treated with 40 microM zLLL for various times, as indicated in exemplary embodiment 1. Cell-free cell culture supernatant was harvested and filtered (pore size=0.45 microm). The relative quantity of released virions was quantified by means of a p24^CA-antigen capture ELISA. For the purpose of virus titration, in each case 8 parallel cultures of C8166 cells were infected with the particular viral preparations, in a serial 10-fold dilution. The infectivity titer was determined as 50% cell culture infectious dose (TCID50), namely by determining syncytia formation for each culture and dilution step on day 10 post infection. […]

## CC(=O)N[C@@H](CSC(=O)[C@]1([C@@H](O)C(C)C)NC(=O)[C@H](C)[C@@H]1O)C(=O)O [LC, lactacystin]
[1]
  concentration tolerated in cell culture: up to 6 μM
[2]
  inhibition of protease activity: not possible to detect any inhibition
  inhibitory action on Gag processing by HIV-1 protease: no inhibitory action whatsoever

## C=C(C)C[C@H](NC(=O)[C@H](CO)NC(=O)CCCCC(C)C)C(=O)[C@@]1(CO)CO1 [eponemycin]
[3]
  tolerability in HepG2: still tolerated well
[4]; 1 μM, day 3 to day 6 after infection
  number of core-positive cells compared to untreated cultures: much lower number of core-positive cells

## CC[C@H](C)[C@H](NC(=O)[C@H]([C@@H](C)CC)N(C)C(C)=O)C(=O)N[C@H](C(=O)N[C@@H](CC(C)C)C(=O)[C@@]1(C)CO1)[C@@H](C)O [epoxomicin]
[3]; human, 48 h
  concentration from which toxic symptoms appeared: ≥ 100 nM

## CC(C)c1nc(CN(C)C(=O)N[C@H](C(=O)N[C@@H](Cc2ccccc2)C[C@H](O)[C@H](Cc2ccccc2)NC(=O)OCc2cncs2)C(C)C)cs1 [ritonavir]
[5]
  inhibition of chymotrypsin activity of the 20S proteasome: can inhibit

## CC(C)(C)NC(=O)[C@@H]1C[C@@H]2CCCC[C@@H]2CN1C[C@@H](O)[C@H](Cc1ccccc1)NC(=O)[C@H](CC(N)=O)NC(=O)c1ccc2ccccc2n1 [saquinavir]
[2]; control, FIG. 3 reaction 10
  in vitro processing of Pr55: complete blockage

## Cc1ccc(C(=O)Nc2ccc(S(=O)(=O)O)c3cc(S(=O)(=O)O)cc(S(=O)(=O)O)c23)cc1NC(=O)c1cccc(NC(=O)Nc2cccc(C(=O)Nc3cc(C(=O)Nc4ccc(S(=O)(=O)O)c5cc(S(=O)(=O)O)cc(S(=O)(=O)O)c45)ccc3C)c2)c1 [suramin]
[4]; 100 microg/ml, from three days after infection for three days
  number of the core-expressing cells: very greatly reduced
[4]; pretreatment 100 microg/ml, 2 h pre-infection
  establishment of the primary infection: completely blocks

## CC(C)C[C@@H](C=O)NC(=O)[C@H](CC(C)C)NC(=O)[C@H](CC(C)C)NC(=O)OCc1ccccc1 [zLLL, N-carbobenzoxyl-L-leucinyl-L-leucinyl-L-leucinal] (Cbz-Leu-Leu-Leu-aldehyde)
[6]; 40 μM zLLL added immediately after washing (“0 hr”), 4.5 hours harvest, A3.01
  Virus release ng p24^CA/ml: 122 ng p24^CA/ml
[6]; 40 μM zLLL, 1 hour pretreatment (“−1 hr”) plus 4.5 hours harvest
  Virus release ng p24^CA/ml: 88 ng p24^CA/ml
[6]; 40 μM zLLL, 6 hours pretreatment (“−6 hr”) plus 4.5 hours harvest
  Virus release ng p24^CA/ml: 26 ng p24^CA/ml
[7]; 1 microM
  effect on HIV-1 replication: completely inhibits replication
[7]; FIG. 4 panel 1
  productive infection in the culture (RT accumulation): no productive infection at all
[7]; FIG. 4 panel 2
  productive infection in the culture (RT accumulation): only a very reduced productive infection
[7]; 100 nanoM
  effect on HIV-1 replication: relatively weak inhibitory effect
[2]
  inhibition of protease activity: not possible to detect any inhibition
  inhibitory action on Gag processing by HIV-1 protease: no inhibitory action whatsoever
[8]
  kinetics of intracellular Gag processing and of the release of virus-associated and free Gag: distinct delay
[9]; “0 hr”, 4.5 hours harvest
  Infectivity Titer/ng p24^CA: 1.0 × 10^4 Titer/ng p24^CA
  Virus titer/ml TCID50: 1.2 × 10^6 TCID50/ml
  Infectivity % of “no zLLL”: 14%
[9]; “−1 hr” plus 4.5 hours harvest
  Infectivity Titer/ng p24^CA: 5.0 × 10^3 Titer/ng p24^CA
  Virus titer/ml TCID50: 4.4 × 10^5 TCID50/ml
  Infectivity % of “no zLLL”: 7%
[9]; “−6 hr” plus 4.5 hours harvest
  Infectivity Titer/ng p24^CA: 1.5 × 10^3 Titer/ng p24^CA
  Virus titer/ml TCID50: 3.8 × 10^4 TCID50/ml
  Infectivity % of “no zLLL”: 2%
[9]; after 4.5 hours
  reduction of infectious virions in the cell culture medium: 84%
[9]; after another 6 hours of pretreatment
  reduction of infectious virions in the cell culture medium: 98%
